From patent publication US7951950B2, “PGD2 receptor antagonists for the treatment of inflammatory diseases” (Millennium Pharmaceuticals, Inc., priority 2005, dated 2011) come the findings set out here.

Usually Ki stands for a measure of affinity in units of concentration, obtained from inhibition or displacement. Low readings indicate higher affinity, high ones lower affinity.

This assay has as its target T1, cloned human CRTH2 receptor (Homo sapiens, UniProt Q9Y5Y4).
T1 construct: purchased Biosignal; host or cells: HEK-293 cells stably expressing human CRTH2 and G alpha 16
T1 sequence (Q9Y5Y4 1-395): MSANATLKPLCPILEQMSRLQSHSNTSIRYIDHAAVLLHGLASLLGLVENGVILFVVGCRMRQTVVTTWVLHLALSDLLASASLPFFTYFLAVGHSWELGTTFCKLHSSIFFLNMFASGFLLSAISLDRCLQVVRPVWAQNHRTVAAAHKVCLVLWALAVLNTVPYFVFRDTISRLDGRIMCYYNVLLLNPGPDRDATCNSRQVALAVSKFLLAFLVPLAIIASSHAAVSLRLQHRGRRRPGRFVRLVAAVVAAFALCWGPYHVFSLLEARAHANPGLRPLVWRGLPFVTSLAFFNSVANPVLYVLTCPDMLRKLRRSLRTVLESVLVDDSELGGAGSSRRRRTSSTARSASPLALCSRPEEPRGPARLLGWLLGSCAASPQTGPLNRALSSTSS
Nature of the assay: radioligand membrane binding assay: inhibition of [3H] PGD2 binding, Scintillation Proximity Assay. Particulars: [3H] PGD2 binding to membranes of HEK-293 cells expressing human CRTH2; SPA. The protocol: This radioligand membrane binding assay evaluates the ability of compounds to inhibit [^3H] Prostaglandin D2 (PGD2) binding to the cloned human CRTH2 receptor stably expressed in HEK-293 cells (expressing human CRTh2 receptor and α subunit or the heterotrimeric G protein 16 were prepared by Biosignal Company) using Scintillation Proximity Assay.
A binding buffer containing 50 mM Tris-HCl (pH 7.5), 5 mM MgCl2 and 1 mM EDTA is prepared immediately prior to performing the assay. A bead/membrane solution at twice the final assay concentration comprising membranes (membranes bought from Biosignal) from the HEK-293 cells cloned to express CRTH2 receptor bound to and [^3H] PGD2 at two times the final assay concentration are prepared and stored on ice before adding to wells. Cold PGD2 at twenty times the final assay concentration is prepared and stored on ice before adding to wells defining non-specific binding (NSB) coming plates #3653 are used for this assay.
10 mM stock concentrations of compounds in 100% DMSO are prepared and stored at room temperature. A 10 point concentration response curve is then constructed for each compound, starting at 10 μM (final assay concentration). The compounds are prepared at 40 times final assay concentrations with nine consequent-3-fold dilutions.
0.1 μl of each concentration of compound are added to the appropriate well of the 384 plate and 2 μl of cold PGD2 is added into the wells defining NSB. 20 μl of [3H] PGD2 and then 20 μl of 2× of bead/membrane solution are then added to each well.
The plates are allowed to incubate at room temperature for approximately 2 hours and then counted on Packard Topcount using SPA tritium protocol for 1 minute/well.
The percent inhibition of PGD2 binding (PGD2 used at the KD value or lower) to the HEK-293 cell membranes is determined, the assay is always run as duplicate for n=1 for a total of n=2 and shown below.
For orientation: SPA uses beads or plates that emit light when radiolabelled molecules are held near them.
Compound `CCN(C(=O)[C@H]1C[C@H](C)N(C(=O)Cc2ccc(OC)cc2)c2ccccc21)c1ccc(Cl)cc1` (racemic) [Compound 2, (±)-trans-1-[2-(4-Methoxy-phenyl)-acetyl]-2-methyl-1,2,3,4-tetrahydro-quinoline-4-carboxylic acid (4-chloro-phenyl)-ethyl-amide] yielded a Ki of less than 10 µM.

In turn, `CCN(Cc1ccc(Cl)cc1)C(=O)[C@H]1C[C@H](C)N(C(=O)c2ccc(OC)cc2)c2ccccc21` (racemic) [Compound 5, (±)-trans-1-(4-Methoxy-benzoyl)-2-methyl-1,2,3,4-tetrahydro-quinoline-4-carboxylic acid (4-chloro-benzyl)-ethyl-amide] had a Ki of less than 10 µM.

`CCN(C(=O)[C@H]1C[C@H](C)N(C(=O)c2ccc(OC)cc2)c2ccccc21)c1ccc(Cl)c(C(F)(F)F)c1` (racemic) [Compound 11, (±)-trans-1-(4-Methoxy-benzoyl)-2-methyl-1,2,3,4-tetrahydro-quinoline-4-carboxylic acid (4-chloro-3-trifluoromethyl-phenyl)-ethyl-amide] had a Ki of less than 10 µM.

For the compound `CCN(C(=O)[C@H]1C[C@H](C)N(C(=O)c2ccc(OC)cc2)c2ccccc21)c1ccc(C(C)C)cc1` (racemic) [Compound 15, (±)-trans-1-(4-Methoxy-benzoyl)-2-methyl-1,2,3,4-tetrahydro-quinoline-4-carboxylic acid ethyl-(4-isopropyl-phenyl)-amide], the inhibition constant Ki is less than 10 µM.

The compound `CCN(C(=O)C1CCN(C(=O)c2ccc(OC)cc2)c2ccccc21)c1ccc(Cl)cc1` (racemic) [Compound 33, (±)-1-(4-Methoxy-benzoyl)-1,2,3,4-tetrahydro-quinoline-4-carboxylic acid (4-chloro-phenyl)-ethyl-amide] came in with a Ki of less than 10 µM.

Turning to `CCN(C(=O)[C@H]1C[C@H](C)N(C(=O)c2ccc(OC)cc2)c2ccccc21)c1cc(C)on1` (racemic) [Compound 35, (±)-trans-1-(4-Methoxy-benzoyl)-2-methyl-1,2,3,4-tetrahydro-quinoline-4-carboxylic acid ethyl-(5-methyl-isoxazol-3-yl)-amide], the inhibition constant (Ki) is less than 10 µM.

Compound `CCN(C(=O)[C@H]1C[C@H](C)N(C(=O)c2ccc(OC)cc2)c2ccccc21)c1ccc(C)c(C(F)(F)F)c1` (racemic) [Compound 50, (±)-trans-1-(4-Methoxy-benzoyl)-2-methyl-1,2,3,4-tetrahydro-quinoline-4-carboxylic acid ethyl-(4-methyl-3-trifluoromethyl-phenyl)-amide] showed a Ki of less than 10 µM.

The compound `CCN(C(=O)[C@H]1C[C@H](C)N(C(=O)c2ccc(OC)cc2)c2ccccc21)c1ccc(C)c(F)c1` (racemic) [Compound 57, (±)-trans-1-(4-Methoxy-benzoyl)-2-methyl-1,2,3,4-tetrahydro-quinoline-4-carboxylic acid ethyl-(3-fluoro-4-methyl-phenyl)-amide] gave an inhibition constant Ki of less than 10 µM.

Consider `CCN(C(=O)[C@H]1C[C@H](C)N(C(=O)c2ccc(OC)cc2)c2ccccc21)c1ccccc1C` (racemic) [Compound 61, (±)-trans-1-(4-Methoxy-benzoyl)-2-methyl-1,2,3,4-tetrahydro-quinoline-4-carboxylic acid ethyl-o-tolyl-amide], for which the Ki was less than 10 µM.

`CCN(C(=O)[C@H]1C[C@@H](C)N(C(=O)c2ccc(OCCC(C)(C)C(=O)O)cc2)c2ccccc21)c1ccc(Cl)cc1` (racemic) [Compound 76, (±)-cis-4-(4-{4-[(4-Chloro-phenyl)-ethyl-carbamoyl]-2-methyl-3,4-dihydro-2H-quinoline-1-carbonyl}-phenoxy)-2,2-dimethyl-butyric acid] returned a Ki of less than 10 µM.
